The source of these data is US12472187B2, “Texaphyrin-Pt(IV) conjugates and compositions for use in overcoming platinum resistance” (BOARD OF REGENTS, THE UNIVERSITY OF TEXAS SYSTEM, priority 2014, dated 2025).

One test relates to A2780 cells. The following applies: platinum sensitive A2780 cells; data from Arambula, et al., 2012; cited from earlier work.
Test [1] deals with 2780CP cells. Particulars: cisplatin resistant 2780CP cells; data from Arambula, et al., 2012; cited from earlier work.
For test [2], the system named is 2780CP cells. Briefly: MTT (tetrazolium dye reduction) proliferation assay, cisplatin resistant 2780CP cells. The class given is cell-based, human. The following applies: ratio of IC50 in 2780CP to A2780; rows for cisplatin and 2 rest on cited IC50. The protocol: The A2780 line was established from a patient's biopsy prior to initiation of any chemotherapeutic regimen (Godwin, et al., 1992). The resistant cell line, 2780CP, used in this study, was established from A2780 cells, as described by Siddik, et al., 1998. The two cell lines have wild-type p53 genotype and/or function. Cells were grown in RPMI containing 10% fetal calf serum and antibiotics (100 μg/mL streptomycin and 100 U/mL penicillin).
The proliferation of exponential phase cultures of A2780 and 2780CP cells was assessed by tetrazolium dye reduction (Mosmann, 1983, which is incorporated herein by reference). […] After a total incubation time of 6 days at 37° C., 50 μL of a stock solution at 3 mg/ml of the tetrazolium dye, 3-(4,5-dimethylthiazol-2-yl)-2,5-diphenyltetrazolium bromide (MTT, Sigma Chemical) were added to each well, the plates incubated at 37° C. for 4 hours, whereupon the medium was removed, the formazan product dissolved in DMSO (50-100 μL) and absorbance values at 570 nm was measured using a microplate reader (Molecular Devices, Sunnyvale, CA). Absorbance values were corrected for background and then normalized to wells containing untreated cells to allow plate-to-plate comparisons. […]
The anti-proliferative effects of conjugates 4 and 5 were assessed with platinum sensitive human ovarian A2780 cells and the isogenic cisplatin resistant 2780CP cell line. […]

The subject of another test is A2780 cancer cells. Briefly: MTT antiproliferative assay of Pt(IV), MGd and MGd+Pt(IV) on A2780 cancer cells. The class given is cell-based. Particulars: agent alone, read-out: IC50 (growth inhibition), single agent. As to the method:
A2780 cancer cells were incubated (37° C., 5% CO2 atmosphere, dark) in 96-wells plates at a concentration of 600 cells/well, in a culture medium containing 10% fetal bovine serum and supplemented with penicillin and streptomycin. After 15 h, drugs (Pt(IV), MGd, MGd+Pt(IV)) were added to cells (gradient of concentration, from 0 to 200 μM, 3-fold dilutions) and plates were incubated for five more days using the above conditions. After five days, MTT dye was added in each well (0.15 mg/well) and plates were left for 4 hours in the incubator. Then, supernatant was carefully removed and 50 μL of DMSO were added to dissolve MTT purple formazan crystals. The absorbance was read at 570 nm using a plate reader.

The term IC50 denotes the midpoint of a concentration-inhibition curve. Turning to `N.N.[Cl][Pt][Cl]` [Cisplatin], the IC50 was 0.33 µM with A2780 cells and 7.3 µM in the test with 2780CP cells [1]. Also, the “Resistance factor = IC50(2780CP)/IC50(A2780)” value with 2780CP cells [2] was determined as 18.25.
`CC(=O)[O-].CC(=O)[O-].CCc1c(CC)c2cc3nc(cnc4cc(OCCOCCOCCOC)c(OCCOCCOCCOC)cc4ncc4nc(cc1[n-]2)C(CCCO)=C4C)C(C)=C3CCCO.[Gd+3]` [Compound 1, motexafin gadolinium]: the IC50 in the test on A2780 cancer cells came to 78 µM.
